Publication PMC10174317, “^18F-labeled FGFR1 peptide: a new PET probe for subtype FGFR1 receptor imaging” (Frontiers in Oncology, 2023)
Like-named read-outs stand apart in the source and are kept apart here. Where a SMILES comes first, the peptide text is derived from it. The star is where a group is joined. NOTA = O=C(O)CN1CCN(CC(=O)O)CCN(CC(=O)*)CC1; AEEA = NCCOCCOCC(=O)O

Experiment: Micro-PET/CT biodistribution in Calu-3 xenografts
Assay type: in vivo, BALB/c nude mice
Conditions: female, BALB/c nude, mouse, iv, total radioactivity, 11.1 MBq tail vein, micro-PET/CT ROI, mean ± SD; for tissue uptake at 0.5 h: 30 min post-injection; for tissue uptake at 1 h: 60 min post-injection; for tissue uptake at 2 h: 120 min post-injection
Method: All animal experiments were carried out in accordance with the Laboratory Animal Ethical Review of Animal Guidelines of China. BALB/c nude mice (sex, female; age, 4 weeks, body weight range, 19-21 g; China) were used for this study. Four cell lines (2*10^7 cells/nude mouse) were subcutaneously injected into the right forelimb to induce solid tumors. All xenograft nude mice were housed in laminar flow cabinets in a specific pathogen-free (SPF) environment and were provided ad libitum access to food and water at the Laboratory Animal Center of the Fourth Hospital of Hebei Medical University (China). The indication for micro-PET/CT imaging was xenografts with a tumor volume of 50-130 mm^3. All animal experiments strictly adhered to the Principles of the Laboratory Animal Ethical Committee of the Fourth Hospital Hebei Medical University (No. 2020016).
Xenograft mice (n=5) were fastly injected of 200 µl of [^18F]F-FGFR1 (11.1 MBq) through tail vein. For the in vivo blocking study, RT-112 (FGFR1-high expression) tumor-bearing mice (n = 5) were injected with a tracer that was mixed with 200-fold (1.58 mg) unlabeled peptide to saturate the receptors in the tumors. Mice were anesthetized via 3% isoflurane inhalation (RWD Life Science Inc. China) for induction and 2% isoflurane inhalation for maintenance. Micro-PET/CT imaging was performed on a micro-PET/SPECT/CT machine (NOVEL MEDICAL Equipment Ltd. China). Whole-body scans were performed 30, 60 and 120 min after tracer administration. The CT scanning parameters were 80 kV, 0.5 mA, 2000 ms/frames, and 360 frames; the images were reconstructed with a 512*512 matrix and a slice thickness of 0.18 mm. PET images were acquired with a 140*140 matrix and 10 min of total acquisition time. Reconstructed images were processed with the comprehensive image analysis software Pmod v4.201 (PMOD Technologies LLC. Switzerland). The biodistribution of the major organs (brain, heart, lung, liver, kidney, bone and muscle) and tumor were analyzed by manually outlining the regions of interest (ROIs) of the entire organs and tissue at each time point of the micro-PET/CT scan. The radioactivity accumulated in bone and muscle was measured in the limbs without xenograft tumors.

[1] = bone, n=5, read-out: Biodistribution, Bone
[2] = brain, n=5, read-out: Biodistribution, Brain
[3] = heart, n=5, read-out: Biodistribution, Heart
[4] = kidney, n=5, read-out: Biodistribution, Kidney
[5] = liver, n=5, read-out: Biodistribution, Liver
[6] = lung, n=5, read-out: Biodistribution, Lung
[7] = muscle, n=5, read-out: Biodistribution, Muscle
[8] = tumor, n=5, read-out: Biodistribution, Tumor

tissue uptake at 0.5 h [1]: 0.42 ± 0.05 %ID/g
tissue uptake at 1 h [1]: 0.36 ± 0.05 %ID/g
tissue uptake at 2 h [1]: 0.37 ± 0.04 %ID/g
tissue uptake at 0.5 h [2]: 0.6 ± 0.04 %ID/g
tissue uptake at 1 h [2]: 0.66 ± 0.06 %ID/g
tissue uptake at 2 h [2]: 0.67 ± 0.18 %ID/g
tissue uptake at 0.5 h [3]: 0.79 ± 0.08 %ID/g
tissue uptake at 1 h [3]: 0.8 ± 0.07 %ID/g
tissue uptake at 2 h [3]: 0.79 ± 0.17 %ID/g
tissue uptake at 0.5 h [4]: 8.47 ± 0.83 %ID/g
tissue uptake at 1 h [4]: 7.48 ± 0.6 %ID/g
tissue uptake at 2 h [4]: 3.02 ± 0.69 %ID/g
tissue uptake at 0.5 h [5]: 1.4 ± 0.07 %ID/g
tissue uptake at 1 h [5]: 1.54 ± 0.12 %ID/g
tissue uptake at 2 h [5]: 1.33 ± 0.17 %ID/g
tissue uptake at 0.5 h [6]: 0.62 ± 0.08 %ID/g
tissue uptake at 1 h [6]: 0.54 ± 0.06 %ID/g
tissue uptake at 2 h [6]: 0.48 ± 0.04 %ID/g
tissue uptake at 0.5 h [7]: 0.28 ± 0.04 %ID/g
tissue uptake at 1 h [7]: 0.25 ± 0.03 %ID/g
tissue uptake at 2 h [7]: 0.3 ± 0.04 %ID/g
tissue uptake at 0.5 h [8]: 0.59 ± 0.08 %ID/g
tissue uptake at 1 h [8]: 0.58 ± 0.06 %ID/g
tissue uptake at 2 h [8]: 0.43 ± 0.03 %ID/g
SMILES: CC(C)C[C@H](NC(=O)[C@H](CO)NC(=O)[C@H](CCCCN)NC(=O)[C@H](Cc1c[nH]c2ccccc12)NC(=O)[C@H](CCC(=O)O)NC(=O)[C@H](C)NC(=O)[C@H](CCCCN)NC(=O)COCCOCCNC(=O)CN1CCN(CC(=O)O)CCN(CC(=O)O)CC1)C(=O)NCC(=O)N[C@@H](CCC(=O)O)C(=O)N[C@@H](CCC(=O)O)C(=O)N[C@@H](C)C(=O)N[C@@H](Cc1c[nH]c2ccccc12)C(=O)N[C@@H](Cc1c[nH]cn1)C(=O)N[C@@H](CO)C(=O)N[C@@H](CCCCN)C(=O)O [[^18F]F-FGFR1] ({NOTA-AEEA}-KAEWKSLGEEAWHSK-OH; N-terminus and C-terminus assumed)
